Target: human GPR120 (Homo sapiens (Human), UniProt Q5NUL3)
Assay: GPR120 pERK AlphaScreen SureFire Assay (human GPR120 pERK assay)
Type: cell-based
Settings: CHOA12 or CHO-K1 cells stably transfected with the short form of human GPR120 receptor; phosphorylated ERK; read-out: EC50 values measured in the human GPR120 pERK assay
Description: GPR120 activity was monitored by measuring phosphorylation of ERK (pERK), since G protein receptors are known to activate the ERK signaling cascade either directly and/or through recruitment of arrestin that serves as a scaffold for downstream signaling events.
GPR120 pERK AlphaScreen SureFire Assay
The human and mouse GPR120-mediated intracellular phosphorylated ERK assays were established using CHOA12 cells stably transfected with the short form of human or mouse GPR120 receptor. Cells were cultured in growth medium consisting of F-12 media (Invitrogen Cat. #11765) with 5% Charcoal/Dextran FBS (Invitrogen Cat. #12676-029), 500 μg/mL GENETICIN® (Life Technologies Cat. #10131-027) and 250 μg/mL Zeocin (Invitrogen Cat. #R250-01). Cells were cryo preserved at a concentration of 2×10^7 cells/mL, in 90% Charcoal/Dextran FBS and 10% DMSO, and frozen in liquid nitrogen at a low passage number.
For the pERK assay, 2×10^7 cells/mL cryopreserved human and mouse cells were thawed rapidly in a 37° C. water bath and added to a T-225 flask containing 50 mL growth medium. The flasks were placed in a tissue culture incubator overnight (37° C., 5% CO2). The next day, cells were harvested with trypsin (Gibco Cat. #25300-054), resuspended in serum-containing growth medium and counted using a Cellometer and volume adjusted to a concentration of 0.6×10^6 cells/mL. Cells were plated into 384-well clear bottom tissue culture plates (BD Cat. #353962) at 50 μL/well, for a density of 30,000 cells/well using a MULTIDROP® and incubated for 16-18 hours (overnight) at 37° C. with 5% CO2. The next day, cells were serum starved in 30 μL of F-12 media without any serum or antibiotics for 2 hours at 37° C.
Test compounds were 3-fold, 11-point serially diluted in DMSO in a REMP assay plate (Matrix Cat. #4307) by Tecan and 5 μL was transferred into an ECHO source plate (LabCyte Cat. #LC-0200). Cells were then stimulated with 50 nL of compound dilutions using ECHO liquid handler for 7 minutes at 37° C. Compounds ranged from final assay concentrations of 33.33 μM to 0.56 nM.
The media was then dumped and cells lysed with 20 μL of 1× Lysis buffer from the AlphaScreen SureFire Phospho-ERK 1/2 Kit (Perkin Elmer Cat. #6760617M). The lysis buffer was diluted 5-fold with water before use. The plate was agitated on a shaker for 10 minutes after which 2 μL was transferred into a 384-well white proxiplate (Perkin Elmer Cat. #6008289). The SureFire assay reagent mix was prepared by mixing 60 parts Reaction Buffer, 10 parts Activation Buffer, 1 part Donor Beads, 1 part Acceptor Beads (Perkin Elmer Cat. #TGRES10K). 3.5 μL/well of this reagent mix was manually added to the proxiplate with a multichannel pipettor. Plates were spun down at 1000 rpm for 2 minutes, followed by light-protected incubation at room temperature for 2 hours. The plates were read on the Alpha-technology compatible Envision multilabel plate reader using AlphaScreen protocol according to manufacturer's specifications. The agonist effect of compounds was expressed as 100×(average sample-average blank)/(average total−average blank) where sample is the luminescence activity in the presence of test compound, blank is equal to the luminescence activity in the presence of DMSO control and the total is signal induced by 50 μM linolenic acid as reference compound. Activation data for the test compound over a range of concentrations was plotted as percentage activation of the test compound (100%=maximum response). After correcting for background, EC50 values were determined. The EC50 is defined as the concentration of test compound which produces 50% of the maximal response and was quantified using the 4 parameter logistic equation to fit the data.
The human and mouse GPR120-mediated intracellular phosphorylated ERK assays were also established using CHO-K1 cells stably transfected with the short form of human or mouse GPR120 receptor. […]

Sequence of human GPR120 (Q5NUL3 whole entry): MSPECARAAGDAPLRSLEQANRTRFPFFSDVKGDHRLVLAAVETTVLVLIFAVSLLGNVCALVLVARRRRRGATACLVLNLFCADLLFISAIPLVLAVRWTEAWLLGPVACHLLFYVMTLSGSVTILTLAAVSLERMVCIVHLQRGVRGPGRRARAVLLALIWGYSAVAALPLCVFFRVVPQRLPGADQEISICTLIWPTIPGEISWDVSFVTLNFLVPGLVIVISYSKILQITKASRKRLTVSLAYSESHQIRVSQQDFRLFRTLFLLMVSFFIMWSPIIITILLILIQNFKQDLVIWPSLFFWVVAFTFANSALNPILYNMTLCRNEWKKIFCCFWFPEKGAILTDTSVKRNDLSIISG

Molecule | EC50 [µM]
O=C(O)CCCC12CCC(OCc3c(F)ccc(F)c3Cl)(CC1)C2 [Example 56, 4-(4-(2-chloro-3,6-difluorobenzyl-oxy)bicyclo [2.2.1]heptan-1-yl)butanoic acid] | 1.88
Cc1cc(COC23CCC(CCCC(=O)O)(CC2)C3)n(-c2ccc(Cl)cc2)n1 [Example 1, 4-(4-((1-(4-Chlorophenyl)-3-methyl-1H-pyrazol-5-yl)methoxy)bicyclo[2.2.1]heptan-1-yl) butanoic acid] | 1.56
O=C(O)CCCC12CCC(OCc3cccc(C(=O)c4ccccc4)c3)(CC1)C2 [Example 39, 4-(4-(3-benzoyl-benzyloxy)bicyclo[2.2.1]heptan-1-yl) butanoic acid] | 0.82
O=C(O)CCCC12CCC(OCc3cc(Cl)cc(OC(F)(F)F)c3)(CC1)C2 [Example 18, 4-(4-(3-chloro-5-(trifluorometh-oxy)benzyloxy)bicyclo[2.2.1]heptan-1-yl) butanoic acid] | 0.25
O=C(O)CCCC12CCC(OCc3cccc(-c4ccccc4)c3)(CC1)C2 [Example 57, 4-(4-(biphenyl-3-ylmethoxy)bicyclo[2.2.1]heptan-1-yl) butanoic acid] | 0.77
OCC(O)CCC12CCC(OCc3cc(F)cc(Oc4ccccc4)c3)(CC1)C2 (single isomer, unassigned) [Example 97, 4-(4-((3-Fluoro-5-phenoxybenzyl)oxy)bicyclo[2.2.1]heptan-1-yl)butane-1,2-diol] | 2.48
COc1cc(Cl)ccc1COC12CCC(CCCC(=O)O)(CC1)C2 [Example 40, 4-(4-(4-chloro-2-methoxybenzyl-oxy)bicyclo [2.2.1]heptan-1-yl)butanoic acid] | 2.3
CC(C)Oc1cccc(COC23CCC(CCCC(=O)O)(CC2)C3)c1 [Example 38, 4-(4-(3-isopropoxy-benzyloxy)bicyclo [2.2.1]heptan-1-yl)butanoic acid] | 1.68
Cc1ccc(Br)cc1COC12CCC(CCCC(=O)O)(CC1)C2 [Example 62, 4-(4-(5-bromo-2-methylbenzyl-oxy)bicyclo [2.2.1]heptan-1-yl)butanoic acid] | 0.81
O=C(O)CCCC12CCC(OCc3cccc(C(F)(F)F)c3Cl)(CC1)C2 [Example 55, 4-(4-(2-chloro-3-(trifluoromethyl)benzyloxy) [2.2.1]heptan-1-yl)butanoic acid] | 0.17
4-(4-(2-(trifluoro- methoxy) benzoyloxy) bicyclo[2.2.1] heptan-1-yl) butanoic acid [Example 20] | 0.71
O=C(O)CCCC12CCC(OCc3csc4ccc(Cl)cc34)(CC1)C2 [Example 30, 4-(4-((5-chlorobenzo[b]thiophen-3-yl)methoxy)bicyclo[2.2.1]heptan-1-yl) butanoic acid] | 0.85
CC(C)Oc1cc(F)cc(COC23CCC(CCCC(=O)O)(CC2)C3)c1 [Example 35, 4-(4-(3-fluoro-5-isopropoxybenzyl-oxy)bicyclo [2.2.1]heptan-1-yl)butanoic acid] | 0.44
Cc1cc(COC23CCC(CCCC(=O)O)(CC2)C3)ccc1F [Example 13, 4-(4-(4-fluoro-3-methylbenzyl-oxy)bicyclo [2.2.1]heptan-1-yl)butanoic acid] | 7.67
COC(=O)CCCC12CCC(OCc3cc(F)ccc3-c3ccc(C)cc3)(CC1)C2 [Example 66, methyl 4-(4-((4-fluoro-4′-methyl-[1,1′-biphenyl]-2-yl)methoxy)bicyclo [2.2.1]heptan-1-yl)butanoic] | 0.37
COc1ccc(OC(F)(F)F)cc1COC12CCC(CCCC(=O)O)(CC1)C2 [Example 29, 4-(4-(2-methoxy-5-(trifluorometh-oxy)benzyloxy)bicyclo[2.2.1]heptan-1-yl) butanoic acid] | 5.07
O=C(O)CCC12CCC(OCCc3cc(OC(F)(F)F)ccc3F)(CC1)C2 [Example 89, 3-((1S,4R)-4-(2-fluoro-5-(trifluoromethoxy)phenethoxy)bicyclo [2.2.1]heptan-1-yl) propanoic acid] | 2.64

Molecule | EC50 [µM]
CC(CCC12CCC(OCc3ccccc3Oc3ccccc3)(CC1)C2)C(=O)O (stereo not drawn) [Example 68, 2-Methyl-4-(4-(2-phenoxybenzyloxy)bicyclo[2.2.1]heptan-1-yl)butanoic acid] | 1
O=C(O)CCC12CCC(OCCc3ccccc3Oc3ccccc3)(CC1)C2 [Example 86, 3-(4-(2-Phenoxyphenethoxy)bicyclo[2.2.1]heptan-1-yl)propanoic acid] | 6.99
O=C(O)CCCC12CCC(OCc3cc(F)cc(C(F)(F)F)c3)(CC1)C2 [Example 25, 4-(4-(3-fluoro-5-(trifluoromethyl)benzyloxy)bicyclo[2.2.1]heptan-1-yl) butanoic acid] | 0.64
O=C(O)C1CC1CC12CCC(OCc3cc(F)cc(Oc4ccccc4)c3)(CC1)C2 (racemic) [Example 91, 2-((4-((3-Fluoro-5-phenoxybenzyl)oxy)bicyclo[2.2.1]heptan-1-yl)methyl)cyclopropanecarboxylic acid] | 0.28
CC(C)Oc1ccc(Cl)cc1COC12CCC(CCCC(=O)O)(CC1)C2 [Example 5, 4-(4-(5-chloro-2-isopropoxy-benzyloxy)bicyclo[2.2.1]heptan-1-yl) butanoic acid] | 1.02
Cc1nc(-c2cccc(COC34CCC(CCCC(=O)O)(CC3)C4)c2)no1 [Example 37, 4-(4-(3-(5-methyl-1,2,4-oxadiazol-3-yl)benzyloxy)bicyclo[2.2.1]heptan-1-yl) butanoic acid] | 3.12
O=C(O)CCCC12CCC(OCc3cc(Cl)cc(Cl)c3)(CC1)C2 [Example 4, 4-(4-(3,5-dichloro-benzyloxy)bicyclo[2.2.1]heptan-1-yl) butanoic acid] | 0.65
3-(4-(3-fluoro-5-(4- fluorophenoxy)benzyloxy) bicyclo[2.2.1]heptan-1-yloxy) propanoic acid [Example 81] | 0.35
O=C(O)CCCC12CCC(OCc3ccc(Cl)cc3Cl)(CC1)C2 [Example 41, 4-(4-(2,4-dichlorobenzyloxy)bicyclo[2.2.1]heptan-1-yl) butanoic acid] | 1.1
CC1(C)Cc2cc(Cl)cc(COC34CCC(CCCO)(CC3)C4)c2O1 [Example 70, 3-(4-((5-Chloro-2,2-dimethyl-2,3-dihydrobenzofuran-7-yl)methoxy)bicyclo[2.2.1]heptan-1-yl)propan-1-ol] | 7.25
COc1cc(F)cc(COC23CCC(CCCC(=O)O)(CC2)C3)c1 [Example 27, 4-(4-(3-fluoro-5-methoxybenzyl-oxy)bicyclo [2.2.1]heptan-1-yl)butanoic acid] | 1.56
O=C(O)CCCC12CCC(OCc3ccccc3Oc3ccccc3)(CC1)C2 [Example 14, 4-(4-(2-phenoxy-benzyloxy)bicyclo[2.2.1]heptan-1-yl) butanoic acid] | 0.27
CC(C)Oc1ccccc1COC12CCC(CCCC(=O)O)(CC1)C2 [Example 36, 4-(4-(2-isopropoxy-benzyloxy)bicyclo [2.2.1]heptan-1-yl)butanoic acid] | 1.55
O=C(O)COCCC12CCC(OCc3cc(F)cc(Oc4ccccc4)c3)(CC1)C2 [Example 100, 2-(2-(4-((3-Fluoro-5-phenoxybenzyl)oxy)bicyclo[2.2.1]heptan-1-yl)ethoxy)acetic acid] | 0.57
4-(4-(3-chloro-5- phenoxybenzyl- oxy)bicyclo [2.2.1]heptan- 1-yl)benzoic acid [Example 6] | 0.45
O=C(O)CCCC12CCC(OCc3cccc(-c4cccs4)c3)(CC1)C2 [Example 61, 4-(4-(3-(thiophen-2-yl)benzyloxy)bicyclo[2.2.1]heptan-1-yl) butanoic acid] | 0.75

From patent US9518000B2, “Bicyclo [2.2.1] acid GPR120 modulators” (BRISTOL-MYERS SQUIBB COMPANY, priority 2013, dated 2016)
